Assay results taken from patent publication US20160038468A1 (priority 2013, published 2016).

Key:
[1] = test system: B. thetaiotaomicron, ATCC 29741; settings: agar dilution testing, from CLSI Table 5; cited from earlier work
[2] = test system: bacterial vaginosis (BV) related organisms; test: Agar dilution MIC (CLSI), 411 vaginal BV related organisms overall; assay type: cell-based
Description: The method used was the reference method approved by the Clinical and Laboratory Standards Institute (CLSI). The CLSI is considered the gold standard for determining the lowest concentration of an antimicrobial agent that prevents growth of a microorganism in an agar dilution susceptibility test referred to as the minimal inhibitory concentration (MIC).
A total of 411 unique microbial isolates recovered from the human vagina of US women from a period of time from 2009 to 2012 were tested for antimicrobial susceptibility by the agar dilution method. A total of 13 analytical runs were conducted in order to analyze all of the samples. See, Example 1.
A total of 411 unique microbial isolates recovered from the human vagina from 2009-2012 were tested for antimicrobial susceptibility by the agar dilution method. This procedure followed the guidelines of the Clinical Laboratory Standard Institute reference agar dilution method (CLSI).
The MIC endpoint was read on the test plate. The MIC is that concentration at which a marked reduction occurs in the appearance of growth on the test plate as compared to the amount that of growth on the control plate. Examples of a marked change in growth include a change from confluent growth to a haze, less than 10 tiny colonies, or one to three normal sized colonies. The illustrated figures found in the CLSI manual should be used as a guide.

## Cc1ncc([N+](=O)[O-])n1CCO [Metronidazole]
[1]
  Acceptable Range of MIC for control strain: 0.5 to 2 µg/mL

## CO[C@H]1/C=C/O[C@@]2(C)Oc3c(C)c(O)c4c(O)c(c5c(nc6cc(C)ccn65)c4c3C2=O)NC(=O)/C(C)=C\C=C\[C@H](C)[C@H](O)[C@@H](C)[C@@H](O)[C@@H](C)[C@H](OC(C)=O)[C@@H]1C [Rifaximin]
[2]; Prevotella, Anaerococcus, Finegoldia, Peptoniphilus and Atopobium strains
  susceptibility of pathogenic strains in respect to clindamycin: higher susceptibility
[2]; Prevotella, Anaerococcus, Peptoniphilus, Atopobium, Megasphera and Mobiluncus strains
  susceptibility of pathogenic strains in respect to metronidazole: higher susceptibility
[2]; in particular when Prevotella strains are present
  efficacy against all pathogen vaginal bacteria judged from MICs, in comparison to metronidazole and clindamycin: more efficacious
